pIC50: −log10 of the molar value.
Tested on: human pancreatic cell lines PANC
Assay: MTT assay of cancer cell viability, PANC cells
Format: cell-based
Description: To evaluate potentials for developing a drug leading from the synthesized compounds, the MTT assay was used to measure cancer cell viability upon the drug treatment. Two cancer cell lines (PANC and U87) were selected, which are some of the representing solid tumor cell lines in the National Cancer Institute's 60 human tumor cell lines panel (see FIG. 1A).

## Cc1cccc(C)c1N1C(=O)C2(C=CC(=O)N2c2ccc(CNC(=O)OC(C)(C)C)cc2)C2C(=O)c3ccccc3OC21 (centres unmarked) [Compound 6j, Tert-butyl (4-(1-(2,6-dimethylphenyl)-2,4,5′-trioxo-1,3a,4,9a-tetrahydro-2H-spiro[chromeno[2,3-b]pyrrole-3,2′-pyrrol]-1′(5′H)-yl)benzyl)carbamate]
Cancer cell viability, PANC
  anticancer activities: excellent anticancer activities
Human pancreatic cell lines PANC
  pIC50: 7.04

From patent US11827645B2, “Spiro-γ-Lactams, and preparation method and use thereof” (Chongqing University of Arts and Sciences, priority 2020, dated 2023)
